Drawing on PubChem BioAssay (NCI), this text covers TGI for eight compounds.

Test systems include M14 melanoma; BT-549 breast; SNB-19 CNS; UACC-257 melanoma; UACC-62 melanoma; NCI-H522 lung; 786-0 renal; SNB-75 CNS; RXF 393 renal; NCI/ADR-RES ovarian; SF-539 CNS; HL-60(TB) leukemia; NCI-H226 lung; MCF7 breast; NCI-H460 lung; SK-OV-3 ovarian; EKVX NSCLC; HCT-15 colon.
What all share (test): growth of human tumour cells (NCI), 48 h

Molecules are shown by their SMILES.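 Cultured in 96-well plates, cells were exposed to test compound for 48 hours across five concentrations. TGI marks complete inhibition of growth.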

For the compound `COc1cccc2c(Nc3ccc(S(=O)(=O)NC(C)=O)cc3)c3ccc([N+](=O)[O-])cc3nc12`, the TGI in the assay on M14 melanoma is over 100 µM; in the assay on BT-549 breast, over 56 µM; in the assay with SNB-19 CNS, over 100 µM; in the assay on UACC-257 melanoma, over 54.9 µM; in the assay on UACC-62 melanoma it was over 58.3 µM; in the assay with NCI-H522 lung, over 100 µM. The TGI in the assay with 786-0 renal, in the assay with SNB-75 CNS, in the assay on RXF 393 renal, with NCI/ADR-RES ovarian, in the assay on SF-539 CNS and in the assay with HL-60(TB) leukemia was over 100 µM throughout. Moreover, the TGI with NCI-H226 lung was over 64.7 µM; with MCF7 breast, over 100 µM; in the assay with NCI-H460 lung it was over 100 µM; with SK-OV-3 ovarian it was over 100 µM; with EKVX NSCLC, over 100 µM; in the assay with HCT-15 colon, over 100 µM.

Consider `O=C(O)c1ccc2c(c1)CC1(C2)Cc2ccccc2C1=O` (stereo unspecified), for which the TGI in the assay on M14 melanoma, in the assay with BT-549 breast, with SNB-19 CNS, in the assay with UACC-257 melanoma, in the assay on UACC-62 melanoma and in the assay on NCI-H522 lung was over 100 µM each time. For the same compound, the TGI with 786-0 renal, in the assay on SNB-75 CNS, in the assay with RXF 393 renal, in the assay on NCI/ADR-RES ovarian, with SF-539 CNS and in the assay with HL-60(TB) leukemia was over 100 µM in each case. The TGI with NCI-H226 lung, with MCF7 breast, in the assay with NCI-H460 lung, with SK-OV-3 ovarian, with EKVX NSCLC and with HCT-15 colon was over 100 µM in each case.

Turning to `CC1=NN(C(=O)c2ccccc2O)C(=O)/C1=C/c1ccccc1O`, the TGI with M14 melanoma was 48.4 µM; in the assay on BT-549 breast, 50 µM; with SNB-19 CNS it was over 100 µM; with UACC-257 melanoma it was 30.5 µM; with UACC-62 melanoma, 7.2 µM; in the assay on NCI-H522 lung, 17.9 µM. Further, the TGI in the assay with 786-0 renal was 44.4 µM; with SNB-75 CNS it was over 67.7 µM; in the assay with RXF 393 renal it was 0.924 µM; with NCI/ADR-RES ovarian, over 36.7 µM; in the assay on SF-539 CNS, 2.45 µM; in the assay with HL-60(TB) leukemia, 3.62 µM. The TGI with NCI-H226 lung was 16.4 µM; in the assay with MCF7 breast, over 64.2 µM; with NCI-H460 lung, over 100 µM; in the assay with EKVX NSCLC it was 41.6 µM; in the assay with HCT-15 colon, 21.2 µM.

On to `Nc1cn(Cc2ccccc2)c2nc(/C=C3/C=CC=CC3=O)c(O)n12`, for which the TGI in the assay with M14 melanoma, in the assay on BT-549 breast, in the assay with SNB-19 CNS, in the assay with UACC-257 melanoma, in the assay with UACC-62 melanoma and with NCI-H522 lung was over 100 µM each time. The TGI in the assay with 786-0 renal, in the assay with SNB-75 CNS, with RXF 393 renal, with NCI/ADR-RES ovarian, with SF-539 CNS and with HL-60(TB) leukemia was over 100 µM throughout. Also, the TGI in the assay on NCI-H226 lung, in the assay on MCF7 breast, in the assay on NCI-H460 lung, in the assay with SK-OV-3 ovarian, with EKVX NSCLC and in the assay on HCT-15 colon was over 100 µM in each case.

As to `NC(N)=N/N=C/c1c(-c2ccc([N+](=O)[O-])cc2)nc2n1CCS2`, the TGI with M14 melanoma turned out to be 30.2 µM; in the assay with BT-549 breast it was 34.2 µM; with SNB-19 CNS it was 11.4 µM; in the assay on UACC-257 melanoma, 35.6 µM; with UACC-62 melanoma, 35.3 µM; in the assay with NCI-H522 lung it was 29.4 µM. Further, the TGI with 786-0 renal is 20.9 µM; with SNB-75 CNS it was 14.5 µM; in the assay on RXF 393 renal it was 23.4 µM; in the assay with NCI/ADR-RES ovarian, over 100 µM; in the assay with SF-539 CNS, 32.3 µM; in the assay on HL-60(TB) leukemia, 25.1 µM. In addition, the TGI came out at 42.9 µM in the assay on NCI-H226 lung; 30.3 µM with MCF7 breast; 32.3 µM in the assay on NCI-H460 lung; 43.2 µM in the assay with SK-OV-3 ovarian; 37.8 µM in the assay with EKVX NSCLC; 36.7 µM with HCT-15 colon.

On to `CC(=O)OC1COC(n2c(-c3ccc(Cl)cc3)cc(-c3ccccc3)c(C#N)c2=S)C(OC(C)=O)C1OC(C)=O` (stereo unspecified), for which the TGI is over 31.6 µM in the assay with M14 melanoma; over 81.8 µM with BT-549 breast; over 79.6 µM in the assay with SNB-19 CNS; over 100 µM in the assay with UACC-257 melanoma; over 31.6 µM in the assay with UACC-62 melanoma; over 100 µM in the assay with NCI-H522 lung. The TGI in the assay on 786-0 renal is 26.8 µM; with SNB-75 CNS, over 100 µM; with RXF 393 renal, 26.9 µM; in the assay with NCI/ADR-RES ovarian, 33.8 µM; with SF-539 CNS it was 15.2 µM; in the assay on HL-60(TB) leukemia, over 89.9 µM. In addition, the TGI in the assay with NCI-H226 lung was 32.3 µM; with MCF7 breast it was over 100 µM; in the assay with NCI-H460 lung, over 66.8 µM; in the assay with SK-OV-3 ovarian, over 78.7 µM; with EKVX NSCLC, over 100 µM; with HCT-15 colon it was over 100 µM.

Take `CC(=O)OCC1OC(N2C(C)=C(C(C)=O)C(c3ccco3)C(C#N)=C2S)C(OC(C)=O)C(OC(C)=O)C1OC(C)=O` (stereo unspecified): the TGI in the assay with M14 melanoma, with BT-549 breast, with SNB-19 CNS, in the assay on UACC-257 melanoma, with UACC-62 melanoma and with NCI-H522 lung was over 100 µM each time. Besides, the TGI in the assay with 786-0 renal, in the assay with SNB-75 CNS, with RXF 393 renal, in the assay with NCI/ADR-RES ovarian, in the assay with SF-539 CNS and in the assay with HL-60(TB) leukemia was over 100 µM each time. Further, the TGI in the assay with NCI-H226 lung, with MCF7 breast, in the assay on NCI-H460 lung and in the assay with HCT-15 colon was over 100 µM each time.

With `CC1=NN(c2nc(N)nc(CSCc3nc(N)nc(N(C)C)n3)n2)C(C)(C)C1`, the TGI with M14 melanoma, in the assay with BT-549 breast, with SNB-19 CNS, in the assay on UACC-257 melanoma, in the assay with UACC-62 melanoma and with NCI-H522 lung was over 100 µM throughout. In addition, the TGI with 786-0 renal, in the assay with SNB-75 CNS, in the assay on RXF 393 renal, in the assay on NCI/ADR-RES ovarian, with SF-539 CNS and in the assay on HL-60(TB) leukemia was over 100 µM throughout. For the same compound, the TGI with NCI-H226 lung, in the assay with MCF7 breast, in the assay on NCI-H460 lung, with SK-OV-3 ovarian, with EKVX NSCLC and with HCT-15 colon was over 100 µM throughout.
